Laboratory results as given in PubChem BioAssay AID179 (DTP/NCI, 2004).
The source made the active and inactive calls.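 How the source made its calls: active means compounds giving half or more protection of infected cells from virus-caused growth loss, again on retest; inactive means the rest.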

Tested on: CEM cells HIV-1 protection, formazan growth assay
Experiment: NCI AIDS Antiviral Assay
Details: for IC50: measured here: growth of uninfected CEM cells
Method in brief: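 Protection of CEM cells against HIV-1 measured as cell growth via soluble formazan read-out, with five concentrations tested on both infected and uninfected cells; failure to protect may reflect toxicity.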

## C=C=CP(=O)(c1ccccc1)c1ccccc1
  EC50: > 151 µM
  IC50: 15.5 µM

## CCOP(=O)(CC(=O)c1ccccc1)OCC
  EC50: > 977 µM
  IC50: > 977 µM

## COc1ccccc1NC(=O)C(=O)Cc1cnc2ccccc2n1
  EC50: > 209 µM
  IC50: 138 µM

## CCOC(=O)c1[nH]c2ccccc2c1C(=O)C[C@H](NC(=O)C(F)(F)F)C(=O)OC
  EC50: > 200 µM
  IC50: > 200 µM

## CS(=O)(=O)OCCN(CCOS(C)(=O)=O)c1ccc(C=O)cc1
  EC50: > 200 µM
  IC50: 0.479 µM

## O=c1c2[nH]c3cccc(Cl)c3c2cnn1-c1ccc(F)cc1
  EC50: > 6.03 µM
  IC50: > 6.03 µM

## CSC1=C(C#N)C(=S)N=C(N)C1C(=O)Nc1ccc(C)cc1 (centres undefined)
  EC50: > 200 µM
  IC50: > 100 µM

## O=[N+]([O-])c1ccc2[nH]nc(OCc3ccccc3Cl)c2c1
  EC50: > 129 µM
  IC50: > 129 µM

## O=c1[nH]c2ccccc2n1C1CCN(CCOc2ccccc2)CC1
  EC50: > 200 µM
  IC50: 23.4 µM

## COc1ccc(/C=C(\C#N)c2ccc(OC)cc2)cc1
  EC50: > 200 µM
  IC50: 8.13 µM

## CCOC(=O)c1[nH]n(-c2ccccc2)c(=O)c1/C=N/C(=S)NNC(C)=O
  outcome: inactive
  IC50: 138 µM

## Cc1cn(C2CC(N=[N+]=[N-])C(CO[Si](C)(C)C(C)(C)C)O2)c(=O)[nH]c1=O (centres undefined)
  EC50: 7.08 µM
  IC50: 66.1 µM

## CC(=O)c1ccc(NCc2cc(O)ccc2O)cc1
  EC50: > 200 µM
  IC50: 10.7 µM

## CNc1ccc(F)cc1SSc1cc(F)ccc1NC
  EC50: > 200 µM
  IC50: 4.79 µM

## COc1ccc(-c2cc3ccccc3oc2=O)cc1OC
  EC50: > 200 µM
  IC50: 41.7 µM

## [Br][Ni][Br].[NH-]CC[NH-].[NH-]CC[NH-]
  EC50: > 200 µM
  IC50: 67.6 µM

## O=C1OC(/C=C/c2ccccc2)C(=O)C1=O (centres undefined)
  EC50: > 1150 µM
  IC50: > 1150 µM

## O=C(O)C1CSCN1C(=O)c1ccccc1SSc1ccccc1C(=O)N1CSCC1C(=O)O (centres undefined)
  EC50: 85.1 µM
  IC50: > 100 µM

## O=C(Nc1ccccc1)O/N=C1/CCCC/C1=C\c1ccccc1
  EC50: > 42.7 µM
  IC50: 39.8 µM

## CC(=O)NC1=NC(=O)/C(=C/c2ccc(/C=C3/C(=O)N=C(NC(C)=O)N3C)cc2)N1C
  EC50: > 200 µM
  IC50: 151 µM

## CC(=O)OC(C)(C)/C=C/C(=O)[C@](C)(O)[C@H]1[C@H](O)C[C@@]2(C)[C@@H]3CC=C4[C@@H](C[C@H](O)[C@H](O)C4(C)C)[C@]3(C)C(=O)C[C@]12C
  EC50: > 0.2 µM
  IC50: 0.0912 µM

## CN(C)C1=NC2=S(SC(Nc3ccccc3)=N2)S1 (centres undefined)
  outcome: inactive

## Cn1c(N)c2c(=O)n(C)c3c(c2c(C#N)c1=O)CCSc1ccccc1-3
  EC50: > 9.33 µM
  IC50: > 9.33 µM

## NC(=O)CCC(Nc1c2ccccc2nc2ccccc12)C(=O)O (centres undefined)
  outcome: inactive

## Cc1nc(/C=C2\C(=O)C=Cc3ccccc32)c(O)o1
  EC50: > 102 µM
  IC50: > 102 µM

## COC(=O)C1c2c(c3ccccc3n2C(=O)OC)CCN2CCC1C(S(=O)(=O)c1ccccc1)C2=O (centres undefined)
  EC50: 363 µM
  IC50: 447 µM

## C=[N+](CNC(=O)CNC(=O)C(Cc1ccccc1)NC(=O)OC(C)(C)C)C(=O)CNC(=O)C(Cc1ccccc1)NC(=O)OC(C)(C)C (centres undefined)
  EC50: > 100 µM
  IC50: > 100 µM

## O=C(c1ccccc1)N1CCN(C(=S)N(C(=O)c2ccccc2)c2ccccc2)C1=S
  EC50: > 200 µM
  IC50: 3.72 µM

## CN(C)C1COC2Cc3ccccc3C1O2 (centres undefined)
  EC50: > 200 µM
  IC50: > 200 µM

## c1ccc2c(c1)[nH]c1cnc3c4ncccc4[nH]c3c12
  outcome: inactive

## Cc1ccc(/C=C/C(=O)c2sc(-n3nc(-c4ccccc4)cc3-c3ccccc3)nc2C)cc1
  EC50: > 11.2 µM
  IC50: > 11.2 µM

## COc1c(Cl)cc(S(=O)OC)cc1Cl (centres undefined)
  outcome: inactive

## CCO[C@]12C[C@H](OC)[C@@]3(O)CC(C1[C@H]3OCc1ccccc1)C13C4C2[C@H](OC)C1[C@](COC)(CN4CC)[C@H](O)C[C@@H]3OC (some centres undefined)
  EC50: 17 µM
  IC50: 117 µM

## COc1cccc([B-]23OCC[N+]2(CNC(=O)C2=C(O)C4(O)C(=O)C5=C(O)c6c(O)cccc6C(C)(O)C5CC4C(N(C)C)C2=O)CCO3)c1 (centres undefined)
  EC50: > 38 µM
  IC50: > 38 µM

## CSc1ccc(/C=N\C(=N)SN)cc1C
  EC50: > 200 µM
  IC50: 18.6 µM

## CCCCCCCCCCCCCCCCCC(=O)NCC(COP(=O)(O)O)OCC (centres undefined)
  EC50: > 21.4 µM
  IC50: > 21.4 µM

## COC(=O)c1ccccc1/C=C1/Cc2ccccc2C1=O
  EC50: > 200 µM
  IC50: > 200 µM

## O=S(=O)(Sc1ccc(Cl)cc1)c1ccc(Cl)cc1
  EC50: > 20 µM
  IC50: 4.27 µM

## COc1ccc(N2C(=O)/C(=C/c3ccc(N(CCC#N)CCC#N)cc3)N=C2c2ccccc2)c(OC)c1
  EC50: > 200 µM
  IC50: 50.1 µM

## COc1ccc(-c2cc(=O)c3c(O)cc(O)cc3o2)cc1
  EC50: > 105 µM
  IC50: > 105 µM

## O=C(CC(O)CCc1ccc(O)c(O)c1)O[C@H]1Cc2c(O)cc(O)cc2O[C@H]1c1ccc(O)c(O)c1 (some centres undefined)
  EC50: > 200 µM
  IC50: 14.1 µM

## CCOC(=O)C1N(S(=O)(=O)c2ccc(C)cc2)CCC12C(c1ccc(OC)c(OC)c1)=Nc1ccccc12 (centres undefined)
  outcome: inactive
